Common to all, as to format: functional
Assay [1] is described as follows: Cytotoxicity against human IGROV-ET cells by MTT assay.
Another assay has as its system LNCaP. In words: Cytotoxicity against human LNCAP cells by MTT assay. Background: Tetrazolium dyes change colour on reduction, which living cells bring about.
The test system of a further assay is LoVo. In words: Cytotoxicity against human LoVo cells by MTT assay.
For a further assay, the species on record is Homo sapiens. In words: (§1) Cytotoxicity against human NSCLC-N6-L16 cells by MTT assay.
In another assay the test system is PANC-1. As to the kind of experiment: Cytotoxicity against human PANC1 cells by MTT assay.
A short description of assay [2]: as §1.

≈ marks a conversion by molar mass, not a printed value. Calls of active or inactive are those of the source. The rule behind the calls is not given here.

As for `CC1=C(CCC(C)C)OC[C@]23CC[C@H]4[C@@H](CC=C5C[C@@H](O)CC[C@@]54C)[C@@H]2CC[C@H]13`, the GI50 stood at 7.95 µg/mL (≈ 19.9 µM) in assay [1], 3.52 µg/mL (≈ 8.83 µM) in the assay on LNCaP, 6.91 µg/mL (≈ 17.3 µM) in the assay on LoVo and 8.92 µg/mL (≈ 22.4 µM) with PANC-1. In addition, in the assay filed under Homo sapiens, the result was inactive.
As for `CC(C)C(C)C1OC1[C@@H](C)[C@@]1(O)CC[C@H]2[C@@H]3CC=C4C[C@@H](O)CC[C@]4(C)[C@H]3CC[C@@]21C` (stereo not given in full), the GI50 in assay [1] was 1.68 µg/mL (≈ 3.9 µM); in the assay with LNCaP, 6.42 µg/mL (≈ 14.9 µM); in the assay with LoVo, 4.02 µg/mL (≈ 9.33 µM); in assay [2] it was 0.6 µg/mL (≈ 1.39 µM); in the assay on PANC-1, 2.74 µg/mL (≈ 6.36 µM).
With `CC(C)CC1OC1[C@@H](C)[C@@]1(O)CC[C@H]2[C@@H]3CC=C4C[C@@H](O)CC[C@]4(C)[C@H]3CC[C@@]21C` (stereo not given in full), the GI50 came out at 1.24 µg/mL (≈ 2.98 µM) in assay [1]; 3.09 µg/mL (≈ 7.42 µM) with LNCaP; 6.23 µg/mL (≈ 15 µM) in the assay with LoVo; 2 µg/mL (≈ 4.8 µM) in assay [2]; 2.17 µg/mL (≈ 5.21 µM) in the assay with PANC-1.
In the case of `CC1=C(CCC(C)C)OC[C@]23CC[C@H]4[C@@H](CC[C@H]5C[C@@H](O)CC[C@@]54C)[C@@H]2CC[C@H]13`, the GI50 in assay [1] was found to be 6.66 µg/mL (≈ 16.6 µM); in the assay on LNCaP, 2.88 µg/mL (≈ 7.19 µM); with LoVo, 8.29 µg/mL (≈ 20.7 µM). For the same molecule, the outcome in the assay listed under Homo sapiens and in the assay on PANC-1 was inactive.

The term GI50 denotes the concentration at which growth is held to half of that of the control. The low end stands for more potent growth inhibition, the high end for less potent growth inhibition.

These data come from ChEMBL document CHEMBL1151157, “New cytotoxic steroids from the Indian Ocean sponge Axinella cf. bidderi” (2004).
